This is an account of results in patent US12221436B2, “Anthranilamides, their use as insecticide and processes for preparing the same” (PI INDUSTRIES LTD., priority 2018, dated 2025).

In one assay the test system is Bemisia tabaci. As to the kind of experiment: Example D: Bemisia tabaci, leaf dip method (cotton leaves). The format is in vivo. Conditions: foliar, freshly emerged adults, 72 h after release, dead and moribund combined, read-out: percent mortality. The method, then: (§1) Test solutions were prepared according to the procedure described herein below (500 PPM):
(§2) • 1. Eppendorf Vortex mixer (ThermoMixer C) and 1.5 mL Eppendorf tubes • 2. Beaker—100 mL • 3. Micro-pipette Reagents: • 1. Surfactant Solution • 2. De-mineralized (DM) Water Procedure: • 1. Weigh 10 mg of the compound of the present invention to be tested in an Eppendorf Tube. • 2. Add 200 mg of the Surfactant Solution into the tube. • 3. Fix the tube in Eppendorf Vortex mixer and start vortexing at 2000 rpm. • 4. Mix on Vortex mixer for 30 min. After 30 min, observe the sample over a microscope at 400× resolution. • 5. Add 1.0 mL DM water into the tube, close the cap, shake the tube thoroughly and transfer the contents, along with the beads, into a beaker. • 6. To rinse the tube, add another 1.0 mL of DM water into the tube, close the cap, shake well and transfer this into the same beaker. • 7. Repeat […] one more time so that the tube is rinsed well and all the compound of the present invention is transferred to the beaker. • 8. Add 16.8 mL of DM water into the beaker and stir well. • 9. Immediately use this sample for biological testing. • 10. Further dilutions can be prepared by taking appropriate quantity of the aliquot of Step 8, immediately after stirring, and diluting as per requirement. The sample solution must be well mixed just before biological testing.
Leaf dip method was used for screening, wherein the required quantity of the compounds were weighed and dissolved in the test solution into the tube and vortex at 2000 rpm with Zirconia beads for 90 min and for proper mixing, then mixed with 0.01% Triton-X solution to get the desired test concentration. Cotton leaves were dipped in the solution for 10 seconds, shade dried for 20 min and then leaves were kept in glass units with petiole dipped in water. […] Observations on dead, moribund and live […] were recorded at 72 h after the release. Percent mortality was calculated by combining dead and moribund adults. […]

A further assay deals with Myzus persicae. The experiment in a line: Example E: Myzus persicae, leaf dip method (capsicum leaves). The format is in vivo. To be noted: foliar, third instar nymphs, 72 h after release, dead and moribund combined, read-out: percent mortality. The method, then:
as §1, §2
Leaf dip method was used for screening, wherein the required quantity of the compounds were weighed and dissolved in the test solution into the tube and vortex at 2000 rpm with Zirconia beads for 90 min and for proper mixing, then mixed with 0.01% Triton-X solution to get the desired test concentration. Capsicum leaves were dipped in the solution for 10 seconds, shade dried for 20 min and then leaves were kept in glass units with petiole dipped in water. Known numbers of third instar nymphs were released and were kept in the plant growth chamber at a temperature of 25° C. and Relative Humidity of 70%. Observations on dead, moribund and live nymphs were recorded at 72 h after the release. Percent mortality was calculated by combining dead and moribund nymphs. The following compound numbers

Structures are written as SMILES. A value given as a limit tells only on which side of the number the result lay.

A word on the mortality: it is the share of the test organisms that died. `Cc1cc(Cl)cc(C(=O)NC(C)(C)C)c1NC(=O)c1cc(OC2CS(=O)(=O)C2)nn1-c1ncccc1Cl` [Compound 99, N-(2-(tert-butylcarbamoyl)-4-chloro-6-methylphenyl)-1-(3-chloropyridin-2-yl)-3-((1,1-dioxidothietan-3-yl)oxy)-1H-pyrazole-5-carboxamide]: in the assay on Bemisia tabaci, the mortality at 300 ppm was greater than 50%.
Regarding `Cc1cc(Cl)cc(C(=O)NC(C)(C)C)c1NC(=O)c1cc(OC2CSC2)nn1-c1ncccc1Cl` [Compound 97, N-(2-(tert-butylcarbamoyl)-4-chloro-6-methylphenyl)-1-(3-chloropyridin-2-yl)-3-(thietan-3-yloxy)-1H-pyrazole-5-carboxamide], the mortality at 300 ppm with Bemisia tabaci and in the assay with Myzus persicae was greater than 50% each time.
Consider `CC(C)(C)NC(=O)c1cc(Cl)cc(Cl)c1NC(=O)c1cc(OC2CSC2)nn1-c1ncccc1Cl` [Compound 176, N-(2-(tert-butylcarbamoyl)-4,6-dichlorophenyl)-1-(3-chloropyridin-2-yl)-3-(thietan-3-yloxy)-1H-pyrazole-5-carboxamide], for which the mortality at 300 ppm with Bemisia tabaci and with Myzus persicae was greater than 50% in each case.
